Experimental data taken from US11236129B2, “IL-17A binding peptides and medical uses thereof” (Dompe' Farmaceutici S.P.A., priority 2018, dated 2022).
Residues, ends and D or L forms follow the SMILES beside them.

Target: IL-17RA/IL17RC dimerization induced by IL-17A (Homo sapiens, UniProt Q16552)
Assay: IL-17RA/IL17RC dimerization assay in response to IL-17A (PathHunter Cytokine Receptor Assay)
Assay type: cell-based
Conditions: IL-17A at EC80; read-out: IC50 in IL-17RA/IL7RC dimerization assay
In short: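 Receptor dimerization was read as chemiluminescence from complemented β-galactosidase after IL-17A at EC80 concentration for 6–16 h at 37 °C. Peptides were added 60 min before agonist, at 37 °C or room temperature, with 1% vehicle. Percent inhibition used the EC80-stimulated and vehicle wells as references.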

Chain of IL-17RA/IL17RC dimerization induced by IL-17A (Q16552 24-155): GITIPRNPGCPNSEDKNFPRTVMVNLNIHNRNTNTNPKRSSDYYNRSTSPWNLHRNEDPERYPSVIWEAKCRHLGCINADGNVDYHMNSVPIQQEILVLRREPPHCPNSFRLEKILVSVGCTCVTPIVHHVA

IC50 | Compound
< 10 µM | CC[C@H](C)[C@H](NC(C)=O)C(=O)N[C@@H](Cc1c[nH]cn1)C(=O)N[C@H](C(=O)N[C@H](C(=O)N[C@H](C(=O)N1CCC[C@H]1C(=O)N[C@@H](C)C(=O)N[C@@H](CC(=O)O)C(=O)N[C@@H](CC(C)C)C(=O)N[C@@H](Cc1c[nH]c2ccccc12)C(=O)N[C@@H](CC(=O)O)C(=O)N[C@@H](Cc1c[nH]cn1)C(=O)N[C@H](C(=O)N[C@@H](CC(N)=O)C(=O)N[C@@H](CCCCN)C(N)=O)[C@@H](C)CC)[C@@H](C)CC)[C@@H](C)O)C(C)C [SEQ ID NO: 209] (Ac-IHVTIPADLWDHINK-NH2)
< 0.5 µM | CC[C@H](C)[C@H](NC(=O)[C@@H](NC(=O)[C@H](Cc1ccccc1)NC(=O)[C@H](Cc1c[nH]cn1)NC(=O)[C@@H](NC(C)=O)C(C)C)[C@@H](C)O)C(=O)N1CCC[C@H]1C(=O)N[C@@H](CCC(N)=O)C(=O)N[C@@H](CC(=O)O)C(=O)N[C@@H](Cc1c[nH]c2ccccc12)C(=O)N[C@@H](Cc1c[nH]c2ccccc12)C(=O)N[C@@H](CCC(=O)O)C(=O)N[C@@H](Cc1c[nH]c2ccccc12)C(=O)N[C@H](C(=O)N[C@@H](CCCNC(=N)N)C(=O)N[C@@H](CCCNC(=N)N)C(N)=O)C(C)C [SEQ ID NO: 146] (Ac-VHFTIPQDWWEWVRR-NH2)
< 10 µM | CC(=O)N[C@H](C(=O)N[C@H](C(=O)N[C@H](C(=O)N[C@@H](Cc1ccc(O)cc1)C(=O)N[C@H](C(=O)N[C@@H](Cc1ccccc1)C(=O)N[C@@H](CC(N)=O)C(=O)N[C@@H](CCC(=O)O)C(=O)N[C@@H](CCC(N)=O)C(=O)N[C@@H](Cc1c[nH]cn1)C(=O)N[C@@H](CCC(N)=O)C(=O)N[C@@H](CCC(=O)O)C(=O)N[C@@H](Cc1ccc(O)cc1)C(=O)N[C@H](C(=O)N[C@@H](CCCNC(=N)N)C(=O)N[C@@H](CCCCN)C(N)=O)C(C)C)C(C)C)C(C)C)C(C)C)[C@@H](C)O [SEQ ID NO: 257] (Ac-TVVYVFNEQHQEYVRK-NH2)
< 0.5 µM | CC[C@H](C)[C@H](NC(=O)[C@@H](NC(=O)[C@@H](NC(=O)[C@H](Cc1c[nH]cn1)NC(=O)[C@@H](NC(C)=O)C(C)C)C(C)C)[C@@H](C)O)C(=O)N1CCC[C@H]1C(=O)N[C@@H](C)C(=O)N[C@@H](CC(=O)O)C(=O)N[C@@H](CC(C)C)C(=O)N[C@@H](Cc1ccc(O)cc1)C(=O)N[C@@H](CC(N)=O)C(=O)N[C@@H](Cc1ccccc1)C(=O)N[C@@H](Cc1ccccc1)C(=O)N[C@@H](CCCNC(=N)N)C(=O)N[C@@H](CCCNC(=N)N)C(N)=O [SEQ ID NO: 149] (Ac-VHVTIPADLYNFFRR-NH2)
< 10 µM | CC[C@H](C)[C@H](NC(=O)[C@H](Cc1c[nH]c2ccccc12)NC(=O)[C@H](CC(=O)O)NC(=O)[C@H](Cc1c[nH]c2ccccc12)NC(=O)[C@H](CC(C)C)NC(=O)[C@H](CC(=O)O)NC(=O)[C@H](C)NC(=O)[C@@H]1CCCN1C(=O)[C@@H](NC(=O)[C@@H](NC(=O)[C@@H](NC(=O)[C@H](Cc1c[nH]cn1)NC(=O)CNC(C)=O)C(C)C)[C@@H](C)O)[C@@H](C)CC)C(=O)N[C@@H](CC(N)=O)C(=O)N[C@@H](CCCCN)C(N)=O [SEQ ID NO: 159] (Ac-GHVTIPADLWDWINK-NH2)
< 0.5 µM | CC(=O)N[C@H](C(=O)N[C@@H](Cc1c[nH]cn1)C(=O)N[C@@H](Cc1ccccc1)C(=O)N[C@@H](CCC(N)=O)C(=O)N[C@@H](Cc1ccccc1)C(=O)N1CCC[C@H]1C(=O)N[C@@H](C)C(=O)N[C@@H](CC(=O)O)C(=O)N[C@@H](CC(C)C)C(=O)N[C@@H](Cc1c[nH]c2ccccc12)C(=O)N[C@@H](CCC(=O)O)C(=O)N[C@@H](Cc1c[nH]c2ccccc12)C(=O)N[C@H](C(=O)N[C@@H](CCCNC(=N)N)C(=O)N[C@@H](CCCNC(=N)N)C(N)=O)C(C)C)C(C)C [SEQ ID NO: 130] (Ac-VHFQFPADLWEWVRR-NH2)
< 10 µM | CC[C@H](C)[C@H](NC(=O)[C@H](Cc1c[nH]c2ccccc12)NC(=O)[C@H](CC(=O)O)NC(=O)[C@H](Cc1c[nH]c2ccccc12)NC(=O)[C@H](CC(C)C)NC(=O)[C@H](CC(=O)O)NC(=O)[C@H](C)NC(=O)[C@@H]1CCCN1C(=O)[C@H](CC(C)C)NC(=O)[C@H](Cc1ccc(O)cc1)NC(=O)[C@@H](NC(=O)[C@H](CCCNC(=N)N)NC(=O)[C@@H](NC(C)=O)C(C)C)[C@@H](C)CC)C(=O)N[C@@H](CC(N)=O)C(=O)N[C@@H](CCCCN)C(N)=O [SEQ ID NO: 245] (Ac-VRIYLPADLWDWINK-NH2)
< 10 µM | CC[C@H](C)[C@H](NC(C)=O)C(=O)N[C@@H](Cc1c[nH]cn1)C(=O)N[C@H](C(=O)N[C@H](C(=O)N[C@@H](Cc1ccccc1)C(=O)N1CCC[C@H]1C(=O)N[C@@H](C)C(=O)N[C@@H](CC(=O)O)C(=O)N[C@@H](CC(C)C)C(=O)N[C@@H](Cc1c[nH]c2ccccc12)C(=O)N[C@@H](CC(=O)O)C(=O)N[C@@H](Cc1c[nH]c2ccccc12)C(=O)N[C@H](C(=O)N[C@@H](CC(N)=O)C(=O)N[C@@H](CCCCN)C(N)=O)[C@@H](C)CC)[C@@H](C)O)C(C)C [SEQ ID NO: 184] (Ac-IHVTFPADLWDWINK-NH2)
< 10 µM | CC[C@H](C)[C@H](NC(C)=O)C(=O)N[C@@H](Cc1c[nH]cn1)C(=O)N[C@H](C(=O)N[C@H](C(=O)N[C@H](C(=O)N1CCC[C@H]1C(=O)N[C@@H](C)C(=O)N[C@@H](CC(=O)O)C(=O)N[C@@H](CC(C)C)C(=O)N[C@@H](Cc1c[nH]c2ccccc12)C(=O)N[C@@H](CC(=O)O)C(=O)N[C@@H](Cc1c[nH]c2ccccc12)C(=O)NCC(=O)N[C@@H](CC(N)=O)C(=O)N[C@@H](CCCCN)C(N)=O)[C@@H](C)CC)[C@@H](C)O)C(C)C [SEQ ID NO: 215] (Ac-IHVTIPADLWDWGNK-NH2)
< 0.5 µM | CC[C@H](C)[C@H](NC(=O)[C@@H](NC(=O)[C@@H](NC(=O)[C@H](Cc1c[nH]cn1)NC(=O)[C@@H](NC(C)=O)C(C)C)C(C)C)[C@@H](C)O)C(=O)N1CCC[C@H]1C(=O)N[C@@H](C)C(=O)N[C@@H](CC(=O)O)C(=O)N[C@@H](CC(C)C)C(=O)N[C@@H](Cc1c[nH]c2ccccc12)C(=O)N[C@@H](CCC(=O)O)C(=O)N[C@@H](Cc1ccccc1)C(=O)N[C@H](C(=O)N[C@@H](CCCNC(=N)N)C(=O)N[C@@H](CCCNC(=N)N)C(N)=O)C(C)C [SEQ ID NO: 120] (Ac-VHVTIPADLWEFVRR-NH2)
< 10 µM | CC[C@H](C)[C@H](NC(C)=O)C(=O)N[C@@H](Cc1c[nH]cn1)C(=O)N[C@H](C(=O)N[C@H](C(=O)N[C@H](C(=O)N1CCC[C@H]1C(=O)N[C@@H](C)C(=O)N[C@@H](CCC(N)=O)C(=O)N[C@@H](CC(C)C)C(=O)N[C@@H](Cc1c[nH]c2ccccc12)C(=O)N[C@@H](CC(=O)O)C(=O)N[C@@H](Cc1c[nH]c2ccccc12)C(=O)N[C@H](C(=O)N[C@@H](CC(N)=O)C(=O)N[C@@H](CCCCN)C(N)=O)[C@@H](C)CC)[C@@H](C)CC)[C@@H](C)O)C(C)C [SEQ ID NO: 199] (Ac-IHVTIPAQLWDWINK-NH2)
< 10 µM | CC[C@H](C)[C@H](NC(C)=O)C(=O)N[C@@H](Cc1c[nH]cn1)C(=O)N[C@H](C(=O)N[C@@H](CO)C(=O)N[C@H](C(=O)N1CCC[C@H]1C(=O)N[C@@H](C)C(=O)N[C@@H](CC(=O)O)C(=O)N[C@@H](CC(C)C)C(=O)N[C@@H](Cc1c[nH]c2ccccc12)C(=O)N[C@@H](CC(=O)O)C(=O)N[C@@H](Cc1c[nH]c2ccccc12)C(=O)N[C@H](C(=O)N[C@@H](CC(N)=O)C(=O)N[C@@H](CCCCN)C(N)=O)[C@@H](C)CC)[C@@H](C)CC)C(C)C [SEQ ID NO: 175] (Ac-IHVSIPADLWDWINK-NH2)
